Where two headings read alike, the source gives them in different places.
Tests used:
Assay in all cases: Test C pre/postemergence
Assay type in all cases: in vivo
[1] = test system: kochia (Kochia scoparia); conditions: Bassia scoparia; for pest or weed control at 125 g/ha: 125 g ai/ha; for pest or weed control at 250 g/ha: 250 g ai/ha
Procedure, shortened: (§1)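 Percent control is a visual rating (0 none, 100 complete) taken against untreated plants after 12 to 14 days of greenhouse growth. Applications were made preemergence to seeded pots and postemergence to plants at the 1- to 4-leaf stage, in a non-phytotoxic surfactant-containing solvent.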

[2] = test system: morningglory (Ipomoea coccinea); conditions: Ipomoea; for pest or weed control at 31 g/ha: 31 g ai/ha; for pest or weed control at 62 g/ha: 62 g ai/ha; for pest or weed control at 125 g/ha: 125 g ai/ha; for pest or weed control at 250 g/ha: 250 g ai/ha
Procedure, shortened: as §1

[3] = test system: pigweed (Amaranthus retroflexus); conditions: Amaranthus retroflexus; for pest or weed control at 31 g/ha: 31 g ai/ha; for pest or weed control at 62 g/ha: 62 g ai/ha; for pest or weed control at 125 g/ha: 125 g ai/ha; for pest or weed control at 250 g/ha: 250 g ai/ha
Procedure, shortened: as §1

[4] = test system: velvetleaf (Abutilon theophrasti); conditions: Abutilon theophrasti; for pest or weed control at 31 g/ha: 31 g ai/ha; for pest or weed control at 62 g/ha: 62 g ai/ha; for pest or weed control at 125 g/ha: 125 g ai/ha; for pest or weed control at 250 g/ha: 250 g ai/ha
Procedure, shortened: as §1

[5] = test system: woolly cupgrass (Eriochloa villosa); conditions: Eriochloa villosa; for pest or weed control at 31 g/ha: 31 g ai/ha; for pest or weed control at 62 g/ha: 62 g ai/ha; for pest or weed control at 125 g/ha: 125 g ai/ha; for pest or weed control at 250 g/ha: 250 g ai/ha
Procedure, shortened: as §1

[6] = test system: yellow nutsedge (Cyperus esculentus); conditions: Cyperus; for pest or weed control at 31 g/ha: 31 g ai/ha; for pest or weed control at 62 g/ha: 62 g ai/ha; for pest or weed control at 125 g/ha: 125 g ai/ha; for pest or weed control at 250 g/ha: 250 g ai/ha
Procedure, shortened: as §1

[7] = pre-emergence, Preemergence, scale 0 to 100, read-out: Plant response rating, Kochia
[8] = post-emergence, Postemergence, scale 0 to 100 (0 no effect, 100 complete control), read-out: Morningglory plant response rating
[9] = pre-emergence, Preemergence, scale 0 to 100, 0 no effect, 100 complete control, read-out: Plant response rating, Morningglory
[10] = pre-emergence, Preemergence, scale 0 to 100, read-out: Plant response rating, Morningglory
[11] = post-emergence, Postemergence, scale 0 to 100 (0 no effect, 100 complete control), read-out: Pigweed plant response rating
[12] = pre-emergence, Preemergence, scale 0 to 100, 0 no effect, 100 complete control, read-out: Plant response rating, Pigweed
[13] = pre-emergence, Preemergence, scale 0 to 100, read-out: Plant response rating, Pigweed
[14] = post-emergence, Postemergence, scale 0 to 100 (0 no effect, 100 complete control), read-out: Velvetleaf plant response rating
[15] = pre-emergence, Preemergence, scale 0 to 100, 0 no effect, 100 complete control, read-out: Plant response rating, Velvetleaf
[16] = pre-emergence, Preemergence, scale 0 to 100, read-out: Plant response rating, Velvetleaf
[17] = post-emergence, Postemergence, scale 0 to 100 (0 no effect, 100 complete control), read-out: Cupgrass, Woolly plant response rating
[18] = pre-emergence, Preemergence, scale 0 to 100, 0 no effect, 100 complete control, read-out: Plant response rating, Cupgrass, Woolly
[19] = pre-emergence, Preemergence, scale 0 to 100, read-out: Plant response rating, Cupgrass, Woolly
[20] = post-emergence, Postemergence, scale 0 to 100 (0 no effect, 100 complete control), read-out: Nutsedge, Yellow plant response rating
[21] = pre-emergence, Preemergence, scale 0 to 100, 0 no effect, 100 complete control, read-out: Plant response rating, Nutsedge, Yellow
[22] = pre-emergence, Preemergence, scale 0 to 100, read-out: Plant response rating, Nutsedge, Yellow

Compound: CCOC(=O)c1nc(C2CC2)nc(N)c1F [Compound 30]
- pest or weed control at 125 g/ha ([1]; post-emergence, Postemergence, scale 0 to 100 (0 no effect, 100 complete control), read-out: Kochia plant response rating): 100%
- pest or weed control at 250 g/ha ([1]; post-emergence, Postemergence, scale 0 to 100, read-out: Plant response rating, Kochia): 100%
- pest or weed control at 31 g/ha ([1]; pre-emergence, Preemergence, 31 g ai/ha, scale 0 to 100, 0 no effect, 100 complete control, read-out: Plant response rating, Kochia): 50%
- pest or weed control at 62 g/ha ([1]; pre-emergence, Preemergence, 62 g ai/ha, scale 0 to 100, 0 no effect, 100 complete control, read-out: Plant response rating, Kochia): 70%
- pest or weed control at 125 g/ha [1, 7]: 70%
- pest or weed control at 250 g/ha [1, 7]: 90%
- pest or weed control at 31 g/ha ([2]; post-emergence, Postemergence, read-out: Plant response rating (scale of 0 to 100), Morningglory): 90%
- pest or weed control at 62 g/ha [2, 8]: 90%
- pest or weed control at 125 g/ha [2, 8]: 95%
- pest or weed control at 250 g/ha ([2]; post-emergence, Postemergence, scale 0 to 100, read-out: Plant response rating, Morningglory): 95%
- pest or weed control at 31 g/ha [2, 9]: 0%
- pest or weed control at 62 g/ha [2, 9]: 85%
- pest or weed control at 125 g/ha [2, 10]: 90%
- pest or weed control at 250 g/ha [2, 10]: 100%
- pest or weed control at 31 g/ha ([3]; post-emergence, Postemergence, read-out: Plant response rating (scale of 0 to 100), Pigweed): 60%
- pest or weed control at 62 g/ha [3, 11]: 70%
- pest or weed control at 125 g/ha [3, 11]: 80%
- pest or weed control at 250 g/ha ([3]; post-emergence, Postemergence, scale 0 to 100, read-out: Plant response rating, Pigweed): 90%
- pest or weed control at 31 g/ha [3, 12]: 0%
- pest or weed control at 62 g/ha [3, 12]: 30%
- pest or weed control at 125 g/ha [3, 13]: 80%
- pest or weed control at 250 g/ha [3, 13]: 90%
- pest or weed control at 31 g/ha ([4]; post-emergence, Postemergence, read-out: Plant response rating (scale of 0 to 100), Velvetleaf): 10%
- pest or weed control at 62 g/ha [4, 14]: 10%
- pest or weed control at 125 g/ha [4, 14]: 60%
- pest or weed control at 250 g/ha ([4]; post-emergence, Postemergence, scale 0 to 100, read-out: Plant response rating, Velvetleaf): 60%
- pest or weed control at 31 g/ha [4, 15]: 0%
- pest or weed control at 62 g/ha [4, 15]: 10%
- pest or weed control at 125 g/ha [4, 16]: 15%
- pest or weed control at 250 g/ha [4, 16]: 50%
- pest or weed control at 31 g/ha ([5]; post-emergence, Postemergence, read-out: Plant response rating (scale of 0 to 100), Cupgrass, Woolly): 0%
- pest or weed control at 62 g/ha [5, 17]: 0%
- pest or weed control at 125 g/ha [5, 17]: 0%
- pest or weed control at 250 g/ha ([5]; post-emergence, Postemergence, scale 0 to 100, read-out: Plant response rating, Cupgrass, Woolly): 40%
- pest or weed control at 31 g/ha [5, 18]: 0%
- pest or weed control at 62 g/ha [5, 18]: 5%
- pest or weed control at 125 g/ha [5, 19]: 45%
- pest or weed control at 250 g/ha [5, 19]: 50%
- pest or weed control at 31 g/ha ([6]; post-emergence, Postemergence, read-out: Plant response rating (scale of 0 to 100), Nutsedge, Yellow): 0%
- pest or weed control at 62 g/ha [6, 20]: 0%
- pest or weed control at 125 g/ha [6, 20]: 0%
- pest or weed control at 250 g/ha ([6]; post-emergence, Postemergence, scale 0 to 100, read-out: Plant response rating, Nutsedge, Yellow): 5%
- pest or weed control at 31 g/ha [6, 21]: 0%
- pest or weed control at 62 g/ha [6, 21]: 0%
- pest or weed control at 125 g/ha [6, 22]: 0%
- pest or weed control at 250 g/ha [6, 22]: 0%

Source: patent US8802597B2, “Herbicidal pyrimidines” (E I du Pont de Nemours and Company, priority 2003, dated 2014)
